Earlier results on 42 compounds are cited in patent publication US20250283018A1, “TOILET RIM BLOCKS WITH SCENT CHANGE” (SYMRISE AG, priority 2021, published 2025).

By logP is commonly meant a log measure of how a compound divides between an organic and an aqueous phase.

Experiment in data set [1]: not given
The source holds these as a separate data set.

The mark [2] stands for this setting: Table 3, components of POWER PLATIN.

Where two headings read alike, the source gives them in different places.

`O=C(OCc1ccccc1)c1ccccc1O` [BENZYLSALICYLAT]: the “Bp. [° C.]” value (list of selected fragrances) is 325 °C. Moreover, the logP in data set [1] (list of selected fragrances) is 4.06.
With `O=Cc1ccc2c(c1)OCO2` [HELIOTROPIN/PIPERONAL], the “Bp. [° C.]” value (list of selected fragrances) was 263 °C. In addition, the logP in data set [1] (list of selected fragrances) is recorded as 1.35.
For “SPIRO[1,3-DIOXOLANE-2,5′-(4′,4′,8′,8′-TETRAMETHYL-HEXAHYDRO-3′,9′-MENTHANONAPHTHALENE)]”, where the note is “list of selected fragrances”, the “Bp. [° C.]” value was 280 °C. For the same compound, the logP in data set [1] (list of selected fragrances) is given as 5.16.
As to `CCCCCC1CCCC(=O)O1` (stereo not drawn) [DECALACTON DELTA], the “Bp. [° C.]” value (Table 2, components of PEACH) was 267 °C. The logP in data set [1] (Table 2, components of PEACH) was 2.57.
As for `c1ccc(Oc2ccccc2)cc1` [DIPHENYLOXID], the “Bp. [° C.]” value runs as follows: (Table 1, components of MARINA) 258 °C; under setting [2], 258 °C. The logP is reported as 4.05 in data set [1] (Table 1, components of MARINA) and 4.05 in data set [1] (setting [2]).
On to `C=C(C)C1CC=C(C)C(OC(C)=O)C1` (stereo not drawn) [ACETIC ACID CARVYL ESTER], for which, for the setting “list of selected fragrances”, the “Bp. [° C.]” value was 92 °C. In data set [1] (list of selected fragrances), the logP is 4.26.
As to `CC(=O)OCCC(C)C` [ISOAMYLACETAT], the “Bp. [° C.]” value (Table 2, components of PEACH) is 143 °C. Besides, the logP in data set [1] (Table 2, components of PEACH) was 2.26.
For the compound `CCCCCCCCCC(C)=O` [UNDECANON-2], the “Bp. [° C.]” value under setting [2] is 231.5 °C. The logP in data set [1] (setting [2]) was 3.69.
In the case of `CCCCCCCCCCCCCC=O` [TETRADECANAL], the “Bp. [° C.]” value (list of selected fragrances) is 286 °C. For the same compound, the logP in data set [1] (list of selected fragrances) is 2.89.
In the case of `CC(C)=CCCC1=CCC(C)(C=O)CC1` (stereo not drawn) [PRECYCLEMONE B], the “Bp. [° C.]” value is, setting by setting: (Table 1, components of MARINA) 267 °C; under setting [2], 267 °C. Moreover, the logP in data set [1] (Table 1, components of MARINA) is 5.19; in data set [1] (setting [2]) it was 5.19.
Regarding `CCCCCCCCCC=O` [ALDEHYD C10], the “Bp. [° C.]” value is 208.5 °C (Table 1, components of MARINA); 208.5 °C (Table 2, components of PEACH); 208.5 °C under setting [2]. In addition, the logP in data set [1] (Table 1, components of MARINA) was 3.76; in data set [1] (Table 2, components of PEACH), 3.76; in data set [1] (setting [2]), 3.76.
Turning to `C/C=C/C(=O)C1=C(C)C=CCC1(C)C` [DAMASCENON], the “Bp. [° C.]” value is, setting by setting: (Table 2, components of PEACH) 263 °C; under setting [2], 263 °C. Besides, the logP in data set [1] (Table 2, components of PEACH) was 4.21; in data set [1] (setting [2]), 4.21.
Regarding NEROL 900, the “Bp. [° C.]” value under setting [2] is 228 °C. In data set [1] (setting [2]), the logP is given as 3.47.
In the case of `CC1CC(C)(c2ccccc2)OC(C)O1` (stereo not drawn), for the setting “list of selected fragrances”, the “Bp. [° C.]” value was 279.2 °C. Moreover, in data set [1] (list of selected fragrances), the logP was 2.79.
On to `CC(=O)/C=C/C1=C(C)CCCC1(C)C` [BETA IONONE], for which the “Bp. [° C.]” value was 259 °C (Table 1, components of MARINA) and 259 °C (list of selected fragrances). Further, the logP in data set [1] (list of selected fragrances) is on record as 3.77.
For the compound `CCCCCCCCC=O` [ALDEHYD C 9], the “Bp. [° C.]” value (Table 1, components of MARINA) is 191 °C. In addition, the logP in data set [1] (Table 1, components of MARINA) is reported as 3.27.
Turning to `CC/C=C/CCOC(=O)c1ccccc1O` [HEXENYLSALICYLAT CIS-3], the “Bp. [° C.]” value (list of selected fragrances) was 301 °C. In data set [1] (list of selected fragrances), the logP is 4.5.
As to `CCC(C)=CCCC(C)=CC#N` [LEMONILE], the “Bp. [° C.]” value under setting [2] is 249 °C. Also, in data set [1] (setting [2]), the logP was 3.96.
With `O=C1CCCCCCCCCCCCCCO1` [OMEGA PENTADECALACTONE], the “Bp. [° C.]” value (list of selected fragrances) is 341 °C. The logP in data set [1] (list of selected fragrances) was 5.35.
`CC(C)=CCCC(C)CC#N` (stereo not drawn): the “Bp. [° C.]” value (Table 1, components of MARINA) was 235 °C. Moreover, in data set [1] (Table 1, components of MARINA), the logP is 3.55.
Regarding `CCCCCC1(C)CCC(C)(C)C1=O` (stereo not drawn) [VELOUTONE], the “Bp. [° C.]” value (Table 2, components of PEACH) was 247 °C. Further, in data set [1] (Table 2, components of PEACH), the logP was 4.34.
As for `COC(OC)C(C)(C)CC=C(C)C` [AMAROCIT ®], the “Bp. [° C.]” value under setting [2] was 203 °C. For the same compound, the logP in data set [1] (setting [2]) was 3.39.
As to `CCCCC(=CCC#N)CC`, the “Bp. [° C.]” value (list of selected fragrances) was 230 °C. For the same compound, the logP in data set [1] (list of selected fragrances) is on record as 3.98.
For the compound `CCCCCCCCCCO` [ALKOHOL C10], the “Bp. [° C.]” value (Table 1, components of MARINA) was 231.1 °C. Further, in data set [1] (Table 1, components of MARINA), the logP was 3.79.
For the compound `c1ccc2[nH]ccc2c1` [INDOL FF], the “Bp. [° C.]” value is 254 °C (Table 2, components of PEACH) and 254 °C under setting [2]. For the same compound, the logP in data set [1] (Table 2, components of PEACH) is listed as 2.05; in data set [1] (setting [2]), 2.05.
In the case of `CC1=CCC(C=CC(C)C(C)O)C1(C)C` (stereo in doubt) [EBANOL], the “Bp. [° C.]” value under setting [2] was 274 °C. Moreover, the logP in data set [1] (setting [2]) is listed as 4.93.
Consider `CCCCCCCCC1CCC(=O)O1` (stereo not drawn) [DODECALACTON GAMMA], for which the “Bp. [° C.]” value (Table 2, components of PEACH) was 291 °C. Also, in data set [1] (Table 2, components of PEACH), the logP is given as 3.55.
On to `CCCCCCCCCCCC=O` [ALDEHYD C12 LAURIN], for which the “Bp. [° C.]” value (Table 1, components of MARINA) is 249 °C. In addition, the logP in data set [1] (Table 1, components of MARINA) is 4.75.
Turning to 3-METHYLBUTYL-CYCLOHEXANOL, the “Bp. [° C.]” value (list of selected fragrances) is 245 °C. For the same compound, in data set [1] (list of selected fragrances), the logP was 4.49.
Take `CC(C)CCCC(C)CCO` (stereo not drawn) [TETRAHYDROGERANIOL]: the “Bp. [° C.]” value was 212 °C (Table 1, components of MARINA) and 212 °C under setting [2]. The logP in data set [1] (Table 1, components of MARINA) is 3.64; in data set [1] (setting [2]), 3.64.
Regarding `COC1CC2CC1C1CC(C=O)CC21` (stereo not drawn) [SCENTENAL], the “Bp. [° C.]” value (Table 1, components of MARINA) was 273 °C. For the same compound, the logP in data set [1] (Table 1, components of MARINA) is listed as 2.03.
On to `CC(C)=CCCC(C)=CCCc1ccncc1`, for which, under “Table 1, components of MARINA”, the “Bp. [° C.]” value is 307 °C. Also, the logP in data set [1] (Table 1, components of MARINA) is recorded as 5.95.
Consider `Cc1ccc2c(c1)OC(=O)C2C` (stereo not drawn) [FURAMINTON/TONKALACTONE ™], for which, for the setting “Table 2, components of PEACH”, the “Bp. [° C.]” value is 284 °C. For the same compound, the lipophilicity (logP) in data set [1] (Table 2, components of PEACH) is listed as 1.44.
As to `CC/C=C(\C)C(O)CCCCC` (stereo not drawn) [UNDECAVERTOL], the “Bp. [° C.]” value (Table 1, components of MARINA) was 235 °C. Moreover, the logP in data set [1] (Table 1, components of MARINA) is on record as 4.05.
Regarding `CC(=O)OC1CC2CC1C1CC=CC21` (stereo not drawn) [VERDYL ACETATE], the “Bp. [° C.]” value (list of selected fragrances) was 260 °C. The logP in data set [1] (list of selected fragrances) is on record as 2.36.
Take `CCc1occc(=O)c1O` [ETHYLMALTOL]: the “Bp. [° C.]” value under setting [2] is 290 °C. In addition, the logP in data set [1] (setting [2]) was 0.3.
Regarding `CCCCCCCCCCC=CC#N` [OZONIL], the “Bp. [° C.]” value (Table 1, components of MARINA) was 293 °C. Moreover, the logP in data set [1] (Table 1, components of MARINA) is given as 5.04.
Regarding `CC1(C)C2CC=C(CCC=O)C1C2` (stereo not drawn) [PINOACETALDEHYD], for the setting “Table 1, components of MARINA”, the “Bp. [° C.]” value is 242 °C. Also, the logP in data set [1] (Table 1, components of MARINA) is recorded as 3.76.
Turning to `CCC(=CCC1CC=C(C)C1(C)C)CO` (stereo not drawn) [ETHYL TRIMETHYLCYCLOPENTENE BUTENOL], the “Bp. [° C.]” value (list of selected fragrances) was 276 °C. Also, the logP in data set [1] (list of selected fragrances) was 4.63.
In the case of `CCCCCCCCCCCCCCCCCC=O` [OCTADECANAL], the “Bp. [° C.]” value (list of selected fragrances) is 250 °C. In addition, in data set [1] (list of selected fragrances), the logP is on record as 1.83.
With `CCCC(=O)OCCC(C)C` [ISOAMYLBUTYRAT], where the note is “Table 2, components of PEACH”, the “Bp. [° C.]” value is 179 °C. Besides, the logP in data set [1] (Table 2, components of PEACH) is 3.25.
Turning to `CCCCCCCCCC(C)C=O` (stereo not drawn) [ALDEHYD C12 MNA], the “Bp. [° C.]” value under setting [2] was 171 °C. The lipophilicity (logP) in data set [1] (setting [2]) is given as 4.67.
